Like-named read-outs stand apart in the source and are kept apart here.
Key:
Type in all cases: cell-based
[1] = system: SRS-A / leukotriene release from antigen-challenged, sensitized guinea pig lung; experiment: Inhibition of SRS-A (leukotriene) release from antigen-challenged, sensitized guinea pig lung; parameters: inhibition: dose or concentration left out as unconfirmed; settings: Cavia porcellus; for inhibition: Dose 30 μm (μM)
Source text: The anti-allergy method of this invention is identified by tests which measure a compound's inhibition of leukotriene release in sensitized guinea pigs. Sensitized guinea pigs are killed by a blow to the head and the lungs removed and cleaned of visible connective tissue, trachea and large blood vessels. The lungs from individual animals are sliced into fragments approximately 1 mm in thickness using a McIlwain tissue chopper and then washed with oxygenated Tyrode's buffer. Weighed aliquots (approximately 400 mg wet weight) of lung are transferred into vials containing 2 ml of fresh Tyrode's solution (containing 10 mM cysteine) and incubated in the presence or absence of test compound for 12 min at 37° C. The tissues are then challenged with 20 μg ovalbumin/ml (final concentration) and incubated for 15 min. To measure leukotriene release, an aliquot of supernatant fluid is extracted with 4 volumes of 100% ethanol. After removal of the precipitated protein, the clear fluid is dried under a stream of N2 gas. The leukotriene content is measured by a radioimmunoassay using [^3 H]LTC4 and antiserum obtained from New England Nuclear. The cross-reactivity of the antiserum for LTD4 is 55%. Percent inhibition of lekotriene release is calculated by comparing for each lung the release in the presence of the test compound to that in the absence of test compound. Representative compounds of the invention at a relative dose of 50 μM of tissue are found to inhibit leukotriene release in the test procedure as indicated below in Table 1: […]

5-lipoxygenase [2] = target: T1, 5-lipoxygenase (Mus musculus, UniProt P48999); experiment: 5-Lipoxygenase assay (murine mast cell clone MC-9); settings: MC9, 5 min, MC-9 cell
T1 construct: The IL-3-dependent murine mast cell clone, MC-9, was used to test the effects; endogenous in cells; host or cells: MC-9 (IL-3-dependent murine mast cell clone)
T1 sequence (P48999 1-674): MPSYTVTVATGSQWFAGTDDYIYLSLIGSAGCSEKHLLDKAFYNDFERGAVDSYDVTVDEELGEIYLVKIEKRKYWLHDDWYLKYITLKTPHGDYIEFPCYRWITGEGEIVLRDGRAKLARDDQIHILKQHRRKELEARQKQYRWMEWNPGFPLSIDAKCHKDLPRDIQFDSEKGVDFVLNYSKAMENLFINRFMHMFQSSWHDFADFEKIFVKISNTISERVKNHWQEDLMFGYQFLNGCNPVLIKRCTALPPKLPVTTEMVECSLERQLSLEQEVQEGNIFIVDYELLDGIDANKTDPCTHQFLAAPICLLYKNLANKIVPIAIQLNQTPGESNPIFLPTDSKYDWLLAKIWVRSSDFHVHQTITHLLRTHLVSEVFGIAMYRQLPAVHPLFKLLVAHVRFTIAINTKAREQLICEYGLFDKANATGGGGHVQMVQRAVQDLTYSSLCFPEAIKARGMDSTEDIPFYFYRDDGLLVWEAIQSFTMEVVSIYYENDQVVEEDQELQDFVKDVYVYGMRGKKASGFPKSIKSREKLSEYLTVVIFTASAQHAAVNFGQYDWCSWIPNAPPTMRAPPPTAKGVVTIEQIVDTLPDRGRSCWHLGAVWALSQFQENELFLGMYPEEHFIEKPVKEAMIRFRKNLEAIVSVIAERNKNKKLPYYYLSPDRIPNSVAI
Protocol: The IL-3-dependent murine mast cell clone, MC-9, was used to test the effects of representative compounds of the invention on lipoxygenase activity. The MC-9 cell line was grown in suspension culture (0.4 to 1.2×10^6 cells/ml) in RPMI 1640 medium (Gibco) with 10% fetal bovine serum (Hyclone) and 2-5% conconavalin-A conditioned supernatant (Musch et. al., (1985) Prostagandins 29, 405-4307. Cells were harvested, washed twice by centrifugation, and resuspended in a Ca^++ -free HEPES buffer (25 mM HEPES, 125 mM NaCl, 2.5 mM KCl 0.7 mM MgCl2, 0.5 mM EGTA and 10 mM glucose at pH 7.4).
MC-9 cells (0.39 ml at 7.5×10^6 cells/ml) were preincubated with dimethylsulfoxide (DMSO) vehicle with or without test compound (1 ul) for 4 minutes then incubated for 5 minutes with [^14 C] arachidonic acid (Amersham, 59 Ci/mole) at a 9 uM final concentration, and A23187 (Calbiochem) at a 1 uM final concentration was added in 10 ul of water:ethanol (9:1). The reaction was stopped by addition of methanol (0.4 ml), and cellular debris was removed by centrifugation. Aliquots (250 ul) of the incubations were run on a Waters two pump HPLC system fitted with a Waters C18, 10 u 8×100 mm u-Bondapak radial compression column and C18 "Guard Pak". The column was initially eluted at 3 ml/min with water:methanol:acetic acid (67:33:0.08) containing 1 mM EDTA adjusted to pH 6.0 with ammonium hydroxide (Pump A). At 4 minutes, a linear gradient to reach 100% methanol (Pump B) at 9 minutes was established. Between 13 and 14 minutes, methanol was exchanged for the initial eluting solvent and by 19 minutes the column had been reequilibrated for the next sample. The effluent was analyzed by a continuous flow radioactivity monitor (model ROMONA-D) interfaced with a Hewlett Packard Lab Automation System for quantitation of radioactive products. These were predominantly leukotriene C4 (LTC4) which eluted at 6 minutes, and 5-hydroxyeicosatetraenoic acid (5-HETE) which eluted at 11 minutes (Musch et. al., supra).

5-lipoxygenase [3] = target: T2, 5-lipoxygenase (Homo sapiens, UniProt P09917); experiment: 5-Lipoxygenase assay with human neutrophils; settings: 5 min, Human PMN, dose 15 μm (μM)
T2 construct: Human polymorphonuclear leukocytes (neutrophils) were obtained from normal healthy volunteers; endogenous in cells; host or cells: human blood neutrophils from healthy volunteers
T2 sequence (P09917 1-674): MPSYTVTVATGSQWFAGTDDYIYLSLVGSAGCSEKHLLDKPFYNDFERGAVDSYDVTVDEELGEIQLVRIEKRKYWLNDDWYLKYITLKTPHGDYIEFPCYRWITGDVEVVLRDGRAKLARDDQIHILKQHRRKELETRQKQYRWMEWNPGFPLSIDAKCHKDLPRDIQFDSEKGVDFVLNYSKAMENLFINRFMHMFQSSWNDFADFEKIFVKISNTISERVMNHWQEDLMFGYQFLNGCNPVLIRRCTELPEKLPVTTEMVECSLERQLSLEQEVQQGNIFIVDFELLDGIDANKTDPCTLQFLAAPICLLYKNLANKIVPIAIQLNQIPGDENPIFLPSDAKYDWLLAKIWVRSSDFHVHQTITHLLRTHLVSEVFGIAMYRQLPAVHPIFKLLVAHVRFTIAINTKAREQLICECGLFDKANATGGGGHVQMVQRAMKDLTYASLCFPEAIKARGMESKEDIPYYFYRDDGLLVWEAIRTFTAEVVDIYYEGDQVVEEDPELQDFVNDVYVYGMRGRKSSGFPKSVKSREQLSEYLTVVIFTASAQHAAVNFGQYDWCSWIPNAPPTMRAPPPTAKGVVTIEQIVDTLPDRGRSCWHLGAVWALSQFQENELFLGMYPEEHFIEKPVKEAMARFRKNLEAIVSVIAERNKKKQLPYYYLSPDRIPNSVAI
Protocol: Human polymorphonuclear leukocytes (neutrophils) were obtained from normal healthy volunteers by venipuncture and collected with heparin anticoagulant. Neutrophils were isolated by Dextran/Ficol sedimentation as described (Billah et al., J. Biol. Chem. 260, 6899-6906 (1985)). In brief, 30 ml of blood was mixed with 5 ml of dextran (Sigma) solution and kept at 37° C. for 30 min. The upper white cell-rich layer was removed and 10 ml was layered on 9 ml of Ficol-Paque solution (Pharmacia) and centrifuged at 280 xg for 10 min. at 5° C. The supernatant was removed and the neutrophil pellet was resuspended in HEPES buffer containing 25 mM N-2-hydroxyethylpiperazine-N^1 -2-ethanesulfonic acid HEPES, 125 mM NaCl, 2.5 mM KCl, 0.7 mM MgCl2, […] 10 mM glucose at pH 7.4. The red cells in the suspension were lysed by hypotonic shock. The neutrophils were washed by centrifugation in HEPES buffer two times and finally resuspended at a concentration of 20×10^6 cells/ml in the presence of 1 mM CaCl2.
Neutrophils (0.2 ml of suspension) were preincubated with dimethylsulfoxide (DMSO) vehicle with or without test compound (1 ul) for 4 minutes then incubated for 5 minutes with [^14 C] arachidonic acid (Amersham, 59 Ci/mole) at a 9 uM final concentration, and the calcium ionophore A23187 (Calbiochem) at a 1 uM final concentration. These stimulants were added in 10 ul of water:ethanol (9:1). The reaction was stopped by addition of methanol (0.4 ml), and cellular debris was removed by centrifugation. Aliquots (100 ul) of the incubations were run on a Waters two pump HPLC system fitted with a DuPont Zorbax ODS, 5u, […] Reliance Cartridge column and C18 "Guard Pak". The column was initially eluted at 2 ml/min with 80% of the mixture water:methanol:acetic acid (46:54:0.08) containing 1 mM EDTA adjusted to pH 6.0 with ammonium hydroxide (Pump A) and 20% methanol (Pump B). At 10 minutes, a linear gradient to reach 100% methanol (Pump B) at 27 minutes was established. Between 27 and 28 minutes, methanol was exchanged for the initial eluting solvent and by 35 minutes the column had been reequilibrated for the next sample. The effluent was analyzed by a continuous flow radioactivity monitor (model ROMONA-D) interfaced with a Hewlett Packard Lab Automation System for quantitation of radioactive products. These were predominantly leukotriene B4 (LTB4) which eluted at 7 minutes, and 5-hydroxyeicosatetraenoic acid (5-HETE) which eluted at 20 minutes.

For `COc1cc(OC)c2c(c1)C(C)(C)C(c1ccc(OC)c(OC)c1)CC2` (stereo not drawn), the inhibition at 50 µM [1] was 5%, the inhibition at 5 µM (5-lipoxygenase [2]; read-out: % Inhibition 5-HETE) was 35% and the inhibition at 5 µM (5-lipoxygenase [2]; read-out: % Inhibition LTC4) was 53%.
With `CC1(C)c2cc(O)cc(O)c2CCC1c1ccc(O)c(O)c1` (stereo not drawn) the inhibition at 10 µM [1] was 16%, the inhibition at 5 µM (5-lipoxygenase [2]; read-out: % Inhibition 5-HETE) was 55% and the inhibition at 5 µM (5-lipoxygenase [2]; read-out: % Inhibition LTC4) was 52%.
For `COc1cc(OC)c2c(c1)C(C)(C)C(c1ccc(OC)c(OC)c1)CC2N` (stereo not drawn), the inhibition [1] was 0%, the inhibition at 15 µM (5-lipoxygenase [3]; read-out: % Inhibition 5-HETE) was 0% and the inhibition at 15 µM (5-lipoxygenase [3]; read-out: % Inhibition LTB) was 0%.
In the case of `COc1cc(OC)c2c(c1)C(C)(C)C(c1ccc(OC)c(OC)c1)CC2NC(C)=O` (stereo not drawn), the inhibition [1] is reported as 11%, the inhibition at 15 µM (5-lipoxygenase [3]; read-out: % Inhibition 5-HETE) is reported as 0% and the inhibition at 15 µM (5-lipoxygenase [3]; read-out: % Inhibition LTB) is reported as 4%.
With `CON=C1CC(c2ccc(OC)c(OC)c2)C(C)(C)c2cc(OC)ccc21` (stereo not drawn) the inhibition [1] was 0% and the inhibition at 15 µM (5-lipoxygenase [3]; read-out: % Inhibition 5-HETE) was 74%.
For `COc1cc(OC)c2c(c1)C(C)(C)C(c1ccc(OC)c(OC)c1)C(C)C2=NO` (stereo not drawn), the inhibition at 10 µM [1] was 13% and the inhibition at 15 µM (5-lipoxygenase [3]; read-out: % Inhibition 5-HETE) was 31%.
Work on `COc1cc(OC)c2c(c1)C(C)(C)C(c1ccccc1)CC2=O` (stereo not drawn) yielded an inhibition at 10 µM [1] of 6%, an inhibition at 15 µM (5-lipoxygenase [3]; read-out: % Inhibition 5-HETE) of 0% and an inhibition at 15 µM (5-lipoxygenase [3]; read-out: % Inhibition LTB) of 0%.
With `COc1ccc2c(c1)C(C)(C)C(c1ccc(OC)c(OC)c1)CC2=O` (stereo not drawn) the inhibition [1] was 28% and the inhibition at 15 µM (5-lipoxygenase [3]; read-out: % Inhibition 5-HETE) was 42%.
With `COc1cc(OC)c2c(c1)C(C)(C)C(c1ccc(OC)c(OC)c1)C(C=O)C2=O` (stereo not drawn) the inhibition [1] was 19%, the inhibition at 15 µM (5-lipoxygenase [3]; read-out: % Inhibition 5-HETE) was 16% and the inhibition at 15 µM (5-lipoxygenase [3]; read-out: % Inhibition LTB) was 0%.
Molecule `COc1cc(OC)c2c(c1)C(C)(C)C(c1ccc(OC)c(OC)c1)CC2(C)O` (stereo not drawn) has an inhibition at 5 µM (5-lipoxygenase [2]; read-out: % Inhibition 5-HETE) of 0% and an inhibition at 5 µM (5-lipoxygenase [2]; read-out: % Inhibition LTC4) of 8%.
Work on `COc1cc(OC)c2c(c1)C(C)(C)C(c1ccc(OC)c(OC)c1)CC2O` (stereo not drawn) yielded an inhibition at 5 µM (5-lipoxygenase [2]; read-out: % Inhibition 5-HETE) of 5% and an inhibition at 5 µM (5-lipoxygenase [2]; read-out: % Inhibition LTC4) of 32%.
In the case of `COc1ccc(C2CC(=O)c3c(cc(OC)c(OC)c3OC)C2(C)C)cc1OC` (stereo not drawn) [3-(3,4-dimethoxyphenyl)-3,4-dihydro-6,7,8-trimethoxy-4,4-dimethyl-1(2H)naphthalenone], the inhibition at 10 µM [1] is reported as 1%, the inhibition at 15 µM (5-lipoxygenase [3]; read-out: % Inhibition 5-HETE) is reported as 0% and the inhibition at 15 µM (5-lipoxygenase [3]; read-out: % Inhibition LTB) is reported as 0%.
`CC1(C)c2cc(O)cc(O)c2C(=O)CC1c1ccc(O)c(O)c1` (stereo not drawn) [drawing 79 [R3/R4=O; E,G,P,L=OH; J=H; db no]] was tested, and the inhibition at 50 µM [1] was 67% and the inhibition at 2 µM (5-lipoxygenase [2]; dose 2 μm, read-out: % Inhibition 5-HETE) was 0%.
`COc1ccc(CC2(Cc3ccc(OC)cc3)CC(C)(C)c3cc(OC)cc(OC)c3C2=O)cc1` [drawing 85 [A=drawing 87; B=drawing 88]] showed an inhibition [1] of 16%.
In the case of `COc1cc(OC)c2c(c1)C(C)(C)C(c1ccc(OC)c(OC)c1)CC(C)(C)C2=O` (stereo not drawn) [drawing 90 [X=O; W=CH3; J=CH3]], the inhibition [1] is reported as 25% and the inhibition at 15 µM (5-lipoxygenase [3]; read-out: % Inhibition 5-HETE) is reported as 54%.
